Data taken from patent US20260199309A1, “COMPOUNDS FOR THE TREATMENT OF CENTRA NERVOUS SYSTEM DISORDERS” (Autifony Therapeutics Limited, priority 2022, published 2026).
Like-named read-outs stand apart in the source and are kept apart here.

Target: T1, human Kv3.1 channels (hKv3.1) (Homo sapiens, UniProt P48547)
T1 construct: expressed in transfected cells
T1 sequence (P48547 1-511): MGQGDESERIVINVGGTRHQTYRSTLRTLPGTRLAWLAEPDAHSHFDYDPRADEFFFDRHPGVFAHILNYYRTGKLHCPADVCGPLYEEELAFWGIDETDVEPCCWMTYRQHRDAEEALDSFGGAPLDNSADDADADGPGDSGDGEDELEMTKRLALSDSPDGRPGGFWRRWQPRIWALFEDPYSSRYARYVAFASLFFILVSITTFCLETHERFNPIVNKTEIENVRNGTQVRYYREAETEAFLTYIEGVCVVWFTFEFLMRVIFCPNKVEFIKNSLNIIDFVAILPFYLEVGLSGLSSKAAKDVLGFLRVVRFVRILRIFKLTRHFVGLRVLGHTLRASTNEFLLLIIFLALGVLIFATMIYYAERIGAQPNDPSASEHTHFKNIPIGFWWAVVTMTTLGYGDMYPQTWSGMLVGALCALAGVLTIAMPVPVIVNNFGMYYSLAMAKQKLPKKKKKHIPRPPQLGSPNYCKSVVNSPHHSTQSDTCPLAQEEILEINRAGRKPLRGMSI
Experiment: Kv3.1 channel modulation, IonWorks Quattro planar array electrophysiology
Assay type: cell-based
Settings: for Kv3.1 max R %: normalised to maximum effect of 50 microM reference compound

[1] = HEK-293 cells expressing human Kv3.1, currents at −15 mV voltage step, normalised to 50 microM reference compound and vehicle
[2] = HEK-293 cells expressing human Kv3.1, currents at −15 mV voltage step, normalised to 50 microM reference compound and vehicle, read-out: Kv3.1 pEC50 (converted)
[3] = HEK-293 cells expressing human Kv3.1

Row | Compound | EC50 [2] | Kv3.1 pEC50 [1] | Kv3.1 max R % [3] | EC50
1 | CC[C@H]1NC(=O)N(c2ccc(Oc3ccc(C)c4c3C3(CC3)CO4)nc2N)C1=O [Example 2, (5R)-3-[2-amino-6-(7-methylspiro[2H-benzofuran-3,1′-cyclopropane]-4-yl)oxy-3-pyridyl]-5-ethyl-imidazolidine-2,4-dione] | 501 nM | 6.3 | 161% | –
2 | CC1(C)NC(=O)N(c2ccc(Oc3cccc4c3C3(CC3)CO4)nc2N)C1=O [Example 3, 3-(2-amino-6-spiro[2H-benzofuran-3,1′-cyclopropane]-4-yloxy-3-pyridyl)-5,5-dimethyl-imidazolidine-2,4-dione] | 501 nM | 6.3 | 159% | –
3 | CC[C@H]1NC(=O)N(c2ccc(Oc3cccc4c3C3(CC3)CO4)nc2N)C1=O [Example 4, (5R)-3-(2-amino-6-spiro[2H-benzofuran-3,1′-cyclopropane]-4-yloxy-3-pyridyl)-5-ethyl-imidazolidine-2,4-dione] | 1000 nM | 6.0 | 159% | –
4 | CC1(C)NC(=O)N(c2ccc(Oc3cccc4c3C(C)(C)CO4)nc2N)C1=O [Example 5, 3-[2-amino-6-[(3,3-dimethyl-2H-benzofuran-4-yl)oxy]-3-pyridyl]-5,5-dimethyl-imidazolidine-2,4-dione] | 631 nM | – | 152% | –
5 | COc1cccc(Oc2ccc(N3C(=O)NC(C)(C)C3=O)c(N)n2)c1 [Example 6, 3-[2-amino-6-(3-methoxyphenoxy)-3-pyridyl]-5,5-dimethyl-imidazolidine-2,4-dione] | 12600 nM | – | 89% | –
6 | Cc1ccc(Oc2ccc(N3C(=O)NC(C)(C)C3=O)c(N)n2)cc1OC(F)(F)F [Example 7, 3-[2-amino-6-[4-methyl-3-(trifluoromethoxy)phenoxy]-3-pyridyl]-5,5-dimethyl-imidazolidine-2,4-dione] | 2510 nM | 5.6 | 135% | –
7 | CC[C@H]1NC(=O)N(c2ccc(Oc3ccc(C)c(OC(F)(F)F)c3)nc2N)C1=O [Example 8, (5R)-3-[2-amino-6-[4-methyl-3-(trifluoromethoxy)phenoxy]-3-pyridyl]-5-ethyl-imidazolidine-2,4-dione] | 3160 nM | 5.5 | 137% | –
8 | CC1(C)NC(=O)N(c2ccc(Oc3ccc(C#N)c(OC(F)(F)F)c3)nc2N)C1=O [Example 10, 4-[[6-amino-5-(4,4-dimethyl-2,5-dioxo-imidazolidin-1-yl)-2-pyridyl]oxy]-2-(trifluoromethoxy)benzonitrile] | 2510 nM | 5.6 | 113% | –
9 | CC[C@H]1NC(=O)N(c2ccc(Oc3ccc(C#N)c(OC(F)(F)F)c3)nc2N)C1=O [Example 11, 4-[[6-amino-5-[(4R)-4-ethyl-2,5-dioxo-imidazolidin-1-yl]-2-pyridyl]oxy]-2-(trifluoromethoxy)benzonitrile] | 3160 nM | 5.5 | 161% | –
10 | CC(C)c1cc(Oc2ccc(N3C(=O)NC(C)(C)C3=O)c(N)n2)ccc1C#N [Example 12, 4-[[6-amino-5-(4,4-dimethyl-2,5-dioxo-imidazolidin-1-yl)-2-pyridyl]oxy]-2-isopropyl-benzonitrile] | 2000 nM | – | 175% | –
11 | CC[C@H]1NC(=O)N(c2ccc(Oc3ccc(C#N)c(C(C)C)c3)nc2N)C1=O [Example 13, 4-[[6-amino-5-[(4R)-4-ethyl-2,5-dioxo-imidazolidin-1-yl]-2-pyridyl]oxy]-2-isopropyl-benzonitrile] | 3160 nM | 5.5 | 161% | –
12 | Cc1ccc(Oc2ccc(N3C(=O)NC(C)(C)C3=O)c(N)n2)c2c1OCC2(C)C [Example 14, 3-[2-amino-6-[(3,3,7-trimethyl-2H-benzofuran-4-yl)oxy]-3-pyridyl]-5,5-dimethyl-imidazolidine-2,4-dione] | 501 nM | – | 165% | –
13 | Cc1ccc(Oc2ccc(N3C(=O)NC(C)(C)C3=O)cn2)c2c1OCC21CC1 [Reference Example 1, reference compound] | – | – | – | 2510 nM
14 | Cc1ccc(Oc2ccc(N3C(=O)NC(C)(C)C3=O)cn2)cc1OC(F)(F)F [Reference Example 6, reference compound] | – | – | – | 10000 nM

Now from value to compound, other results behind:

Row | EC50 [2] | Compound | Kv3.1 pEC50 [1] | Kv3.1 max R % [3] | EC50
15 | 1580 nM | Cc1ccc(Oc2ccc(N3C(=O)NC(C)(C)C3=O)c(C)n2)c2c1OCC21CC1 [Reference Example 3, reference compound] | – | – | –
16 | 31600 nM | CC1(C)NC(=O)N(c2ccc(Oc3cccc4c3C3(CC3)CO4)nc2)C1=O [Reference Example 4, reference compound] | – | – | –
17 | 3980 nM | COc1nc(Oc2cccc3c2C2(CC2)CO3)ccc1N1C(=O)NC(C)(C)C1=O [Reference Example 5, reference compound] | – | – | –
18 | 12600 nM | COc1nc(Oc2ccc(C)c(OC(F)(F)F)c2)ccc1N1C(=O)NC(C)(C)C1=O [Reference Example 7, reference compound] | – | – | –
19 | 6310 nM | Cc1ccc(Oc2ccc(N3C(=O)NC(C)(C)C3=O)c(C)n2)cc1OC(F)(F)F [Reference Example 8, reference compound] | – | – | –
20 | 12600 nM | COc1nc(Oc2ccc(C#N)c(OC(F)(F)F)c2)ccc1N1C(=O)NC(C)(C)C1=O [Reference Example 9, reference compound] | – | – | –
21 | 1260 nM | CC[C@H]1NC(=O)N(c2ccc(Oc3ccc(C)c4c3C3(CC3)CO4)nc2OC)C1=O [Reference Example 11, reference compound] | – | – | –
22 | 631 nM | CC[C@H]1NC(=O)N(c2ccc(Oc3ccc(C)c4c3C3(CC3)CO4)nc2C)C1=O [Reference Example 12, reference compound] | – | – | –
23 | 2000 nM | CC[C@H]1NC(=O)N(c2ccc(Oc3cccc4c3C3(CC3)CO4)nc2OC)C1=O [Reference Example 14, reference compound] | – | – | –
24 | 2510 nM | CC[C@H]1NC(=O)N(c2ccc(Oc3ccc(C)c(OC(F)(F)F)c3)nc2)C1=O [Reference Example 15, reference compound] | – | – | –
25 | 7940 nM | CC[C@H]1NC(=O)N(c2ccc(Oc3ccc(C)c(OC(F)(F)F)c3)nc2OC)C1=O [Reference Example 16, reference compound] | – | – | –
26 | 5010 nM | CC[C@H]1NC(=O)N(c2ccc(Oc3ccc(C)c(OC(F)(F)F)c3)nc2C)C1=O [Reference Example 17, reference compound] | – | – | –
27 | 10000 nM | CC[C@H]1NC(=O)N(c2ccc(Oc3ccc(C#N)c(OC(F)(F)F)c3)nc2OC)C1=O [Reference Example 18, reference compound] | – | – | –
28 | 1260 nM | CC[C@H]1NC(=O)N(c2ccc(Oc3ccc(C#N)c(C(C)C)c3)nc2)C1=O [Reference Example 19, reference compound] | – | – | –
